Assay results: patent US7368578B2, “Five-membered heterocyclic compounds” (Takeda Pharmaceutical Company Limited, priority 2002, dated 2008)

| SMILES | melting point |
| --- | --- |
| COc1cc(COc2nn(Cc3ccccc3)cc2C(=O)O)ccc1OCc1nc(-c2ccco2)oc1C [Example 13, 1-benzyl-3-[(4-{[2-(2-furyl)-5-methyl-1,3-oxazol-4-yl]methoxy}-3-methoxybenzyl)oxy]-1H-pyrazole-4-carboxylic acid] | 167 to 168 °C |
| COc1cc(COc2nn(Cc3ccccc3)cc2CO)ccc1OCc1nc(-c2ccco2)oc1C [Example 15, (1-benzyl-3-[(4-{[2-(2-furyl)-5-methyl-1,3-oxazol-4-yl]methoxy)-3-methoxybenzyl)oxy]-1H-pyrazol-4-yl}methanol] | 104 to 105 °C |
| COc1cc(COc2nn(Cc3ccccc3)cc2C=O)ccc1OCc1nc(-c2ccco2)oc1C [Example 16, 1-benzyl-3-[(4-{[2-(2-furyl)-5-methyl-1,3-oxazol-4-yl]methoxy}-3-methoxybenzyl)oxy]-1H-pyrazole-4-carbaldehyde] | 139 to 140 °C |
| COc1cc(COc2nn(Cc3ccccc3)cc2C(C)O)ccc1OCc1nc(-c2ccco2)oc1C (centres unmarked) [Example 18, 1-{1-benzyl-3-[(4-{[2-(2-furyl)-5-methyl-1,3-oxazol-4-yl]methoxy}-3-methoxybenzyl)oxy]-1H-pyrazol-4-yl}-1-ethanol] | 105 to 106 °C |
| COc1cc(COc2nn(Cc3ccccc3)cc2C(C)=O)ccc1OCc1nc(-c2ccco2)oc1C [Example 19, 1-{1-benzyl-3-[(4-{[2-(2-furyl)-5-methyl-1,3-oxazol-4-yl]methoxy}-3-methoxybenzyl)oxy]-1H-pyrazol-4-yl}-1-ethanone] | 144 to 145 °C |
| Cc1oc(-c2ccccc2)nc1COc1ccc(COc2nn(Cc3ccccc3)cc2C=O)cc1 [Example 22, 1-benzyl-3-[{4-[(5-methyl-2-phenyl-1,3-oxazol-4-yl)methoxy]benzyl}oxy]-1H-pyrazole-4-carbaldehyde] | 133 to 134 °C |
| CCOC(=O)c1cn(Cc2ccccc2)nc1OCc1cccc(OCc2nc(-c3ccccc3)oc2C)c1 [Example 23, ethyl 1-benzyl-3-({3-[(5-methyl-2-phenyl-1,3-oxazol-4-yl)methoxy]benzyl}oxy)-1H-pyrazole-4-carboxylate] | 95 to 96 °C |
| Cc1oc(-c2ccco2)nc1COc1cccc(COc2nn(Cc3ccccc3)cc2C=O)c1 [Example 28, 1-benzyl-3-[(3-{[2-(2-furyl)-5-methyl-1,3-oxazol-4-yl]methoxy}benzyl)oxy]-1H-pyrazole-4-carbaldehyde] | 135 to 136 °C |
| CCOC(=O)c1cn(Cc2ccccc2)nc1OCc1ccc(OCc2nc(-c3ccco3)oc2C)c(OCC)c1 [Example 29, ethyl 1-benzyl-3-[(3-ethoxy-4-{[2-(2-furyl)-5-methyl-1,3-oxazol-4-yl]methoxy}benzyl)oxy]-1H-pyrazole-4-carboxylate] | 121 to 122 °C |
| CCOc1cc(COc2nn(Cc3ccccc3)cc2C=O)ccc1OCc1nc(-c2ccco2)oc1C [Example 31, 1-benzyl-3-[(3-ethoxy-4-{[2-(2-furyl)-5-methyl-1,3-oxazol-4-yl]methoxy}benzyl)oxy]-1H-pyrazole-4-carbaldehyde] | 144 to 145 °C |
| COc1ccc(COc2nn(Cc3ccccc3)cc2C=O)cc1OCc1nc(-c2ccco2)oc1C [Example 34, 1-benzyl-3-[(3-{[2-(2-furyl)-5-methyl-1,3-oxazol-4-yl]methoxy}-4-methoxybenzyl)oxy]-1H-pyrazole-4-carbaldehyde] | 142 to 143 °C |
| Cc1oc(-c2ccco2)nc1COc1ccc(COc2nn(Cc3ccccc3)cc2C=O)cc1Cl [Example 37, 1-benzyl-3-[(3-chloro-4-{[2-(2-furyl)-5-methyl-1,3-oxazol-4-yl]methoxy}benzyl)oxy]-1H-pyrazole-4-carbaldehyde] | 158 to 159 °C |
| CCOC(=O)c1cn(Cc2ccccc2)nc1OCc1ccc(OCc2nc(-c3ccco3)oc2C)c(O)c1 [Example 46, ethyl 1-benzyl-3-[(4-{[2-(2-furyl)-5-methyl-1,3-oxazol-4-yl]methoxy}-3-hydroxybenzyl)oxy]-1H-pyrazole-4-carboxylate] | 134 to 135 °C |
| CCOC(=O)c1cn(Cc2ccccc2)nc1OCc1ccc(OCc2nc(-c3ccco3)oc2C)c(OCc2ccccc2)c1 [Example 48, ethyl 1-benzyl-3-[(3-benzyloxy-4-{[2-(2-furyl)-5-methyl-1,3-oxazol-4-yl]methoxy}benzyl)oxy]-1H-pyrazole-4-carboxylate] | 127 to 128 °C |
| Cc1oc(-c2ccco2)nc1COc1ccc(COc2nn(Cc3ccccc3)cc2C(=O)O)cc1OCc1ccccc1 [Example 51, 1-benzyl-3-[(3-benzyloxy-4-{[2-(2-furyl)-5-methyl-1,3-oxazol-4-yl]methoxy}benzyl)oxy]-1H-pyrazole-4-carboxylic acid] | 184 to 185 °C |
| CCOC(=O)c1cn(Cc2ccccc2)nc1OCc1ccc(OCc2nc(-c3ccco3)oc2C)c(Br)c1 [Example 55, ethyl 1-benzyl-3-[(3-bromo-4-{[2-(2-furyl)-5-methyl-1,3-oxazol-4-yl]methoxy}benzyl)oxy]-1H-pyrazole-4-carboxylate] | 158 to 159 °C |
| CCOC(=O)c1cn(Cc2ccccc2)nc1OCc1ccc(OCc2nc(-c3ccco3)oc2C)c(-c2ccccc2)c1 [Example 56, ethyl 1-benzyl-3-[(4-{[2-(2-furyl)-5-methyl-1,3-oxazol-4-yl]methoxy}-3-phenylbenzyl)oxy]-1H-pyrazole-4-carboxylate] | 134 to 135 °C |
| Cc1oc(-c2ccco2)nc1COc1ccc(COc2nn(Cc3ccccc3)cc2C(=O)O)cc1-c1ccccc1 [Example 57, 1-benzyl-3-[(4-{[2-(2-furyl)-5-methyl-1,3-oxazol-4-yl]methoxy}-3-phenylbenzyl)oxy]-1H-pyrazole-4-carboxylic acid] | 181 to 182 °C |

The next lines start with the values.

| melting point | SMILES |
| --- | --- |
| 160 to 161 °C | COc1cc(COc2nn(Cc3ccccc3)cc2C(N)=O)ccc1OCc1nc(-c2ccco2)oc1C [Example 14, 1-benzyl-3-[(4-{[2-(2-furyl)-5-methyl-1,3-oxazol-4-yl]methoxy}-3-methoxybenzyl)oxy]-1H-pyrazole-4-carboxamide] |
| 99 to 100 °C | CCOC(=O)c1cn(Cc2ccccc2)nc1OCc1ccc(OCc2nc(-c3ccccc3)oc2C)cc1 [Example 20, ethyl 1-benzyl-3-({4-[(5-methyl-2-phenyl-1,3-oxazol-4-yl)methoxy]benzyl}oxy)-1H-pyrazole-4-carboxylate] |
| 131 to 132 °C | Cc1oc(-c2ccccc2)nc1COc1cccc(COc2nn(Cc3ccccc3)cc2C=O)c1 [Example 25, 1-benzyl-3-({3-[(5-methyl-2-phenyl-1,3-oxazol-4-yl)methoxy]benzyl}oxy)-1H-pyrazole-4-carbaldehyde] |
| 92 to 93 °C | CCOC(=O)c1cn(Cc2ccccc2)nc1OCc1cccc(OCc2nc(-c3ccco3)oc2C)c1 [Example 26, ethyl 1-benzyl-3-[(3-{[2-(2-furyl)-5-methyl-1,3-oxazol-4-yl]methoxy}benzyl)oxy]-1H-pyrazole-4-carboxylate] |
| 147 to 148 °C | CCOC(=O)c1cn(Cc2ccccc2)nc1OCc1ccc(OC)c(OCc2nc(-c3ccco3)oc2C)c1 [Example 32, ethyl 1-benzyl-3-[(3-{[2-(2-furyl)-5-methyl-1,3-oxazol-4-yl]methoxy}-4-methoxybenzyl)oxy]-1H-pyrazole-4-carboxylate] |
| 153 to 154 °C | CCOC(=O)c1cn(Cc2ccccc2)nc1OCc1ccc(OCc2nc(-c3ccco3)oc2C)c(Cl)c1 [Example 35, ethyl 1-benzyl-3-[(3-chloro-4-{[2-(2-furyl)-5-methyl-1,3-oxazol-4-yl]methoxy}benzyl)oxy]-1H-pyrazole-4-carboxylate] |
| 191 to 192 °C | Cc1oc(-c2ccco2)nc1COc1ccc(COc2nn(Cc3ccccc3)cc2C(=O)O)cc1Cl [Example 38, 1-benzyl-3-[(3-chloro-4-{[2-(2-furyl)-5-methyl-1,3-oxazol-4-yl]methoxy}benzyl)oxy]-1H-pyrazole-4-carboxylic acid] |
| 120 to 121 °C | CCOC(=O)c1cn(Cc2ccccc2)nc1OCc1ccc(OCc2nc(-c3ccco3)oc2C)c(OCOC)c1 [Example 39, ethyl 1-benzyl-3-[(4-{[2-(2-furyl)-5-methyl-1,3-oxazol-4-yl]methoxy}-3-(methoxymethoxy)benzyl)oxy]-1H-pyrazole-4-carboxylate] |
| 140 to 141 °C | CCOC(=O)c1cn(Cc2ccccc2)nc1OCc1ccc(OCc2nc(-c3ccco3)oc2C)nc1 [Example 40, ethyl 1-benzyl-3-[(6-{[2-(2-furyl)-5-methyl-1,3-oxazol-4-yl]methoxy}-3-pyridinyl)methoxy]-1H-pyrazole-4-carboxylate] |
| 151 to 152 °C | Cc1oc(-c2ccco2)nc1COc1ccc(COc2nn(Cc3ccccc3)cc2C(=O)O)cn1 [Example 43, 1-benzyl-3-[(6-{[2-(2-furyl)-5-methyl-1,3-oxazol-4-yl]methoxy}-3-pyridinyl)methoxy]-1H-pyrazole-4-carboxylic acid] |
| 141 to 142 °C | COCOc1cc(COc2nn(Cc3ccccc3)cc2C=O)ccc1OCc1nc(-c2ccco2)oc1C [Example 45, 1-benzyl-3-([4-{[2-(2-furyl)-5-methyl-1,3-oxazol-4-yl]methoxy}-3-(methoxymethoxy)benzyl]oxy)-1H-pyrazole-4-carbaldehyde] |
| 130 to 131 °C | Cc1oc(-c2ccco2)nc1COc1ccc(COc2nn(Cc3ccccc3)cc2C=O)cc1OCc1ccccc1 [Example 50, 1-benzyl-3-[(3-benzyloxy-4-{[2-(2-furyl)-5-methyl-1,3-oxazol-4-yl]methoxy}benzyl)oxy]-1H-pyrazole-4-carbaldehyde] |
| 137 to 138 °C | CCOC(=O)c1cn(Cc2ccccc2)nc1OCc1ccc(OCc2nc(-c3ccco3)oc2C)cc1OC [Example 52, ethyl 1-benzyl-3-[(4-{[2-(2-furyl)-5-methyl-1,3-oxazol-4-yl]methoxy}-2-methoxybenzyl)oxy]-1H-pyrazole-4-carboxylate] |
| 147 to 148 °C | COc1cc(OCc2nc(-c3ccco3)oc2C)ccc1COc1nn(Cc2ccccc2)cc1C=O [Example 54, 1-benzyl-3-[(4-{[2-(2-furyl)-5-methyl-1,3-oxazol-4-yl]methoxy}-2-methoxybenzyl)oxy]-1H-pyrazole-4-carbaldehyde] |
